The test system of data set [1] is TCC97-7 bladder cancer cells carrying the Ser249Cys mutation of FGF receptor 3. The experiment in a line: Reduction of intracellular ATP content of TCC97-7 cells (Cell Titer-Glo, 3 days, serum-supplemented medium). The format is cell-based. Particulars: 72 h, TCC97-7 cells in presence of serum, read-out: Inhibition of the amount of intracellular ATP (%). As for the experimental part:
Evaluation of the Capacity of the FGF-R Antagonists to Reduce the ATP Content of TCC97-7 Bladder Cancer Cells Carrying the Ser249Cys Mutation of FGF Receptor 3, Cultured in a Serum-Supplemented Medium
To do this, 3000 cells are seeded in 50 μl of complete medium (Ham-F/12, 1% FCS, […], non-essential amino acids, sodium pyruvate, 1% insulin/transferrin/selenium, hydrocortisone). 16 hours later, 50 μl of the various compounds are added at 0.2, 2, 20 and 60 μM after dilution in complete culture medium in order to obtain final concentrations of 0.1, 1, 10 and 30 μM. After 3 days, the ATP content of the cells is measured using the Cell Titer-Glo® Luminescent Cell Viability Assay kit (Promega, France) according to the supplier's recommendations. The percentage inhibition of the amount of intracellular ATP is calculated by considering the ATP content of the cells cultured in the absence of antagonist to be 0% inhibition. 100% inhibition would correspond to a well in which the ATP content is zero.
(In general: Cellular ATP, detected with luciferase, serves as a proxy for viable cell number.)

Data set [2] in a line: Cytotoxic effect: percentage of permeabilized (very fluorescent, Hoechst 33342) TCC97-7 cells. To be noted: human, read-out: Cytotoxicity (% of permeable cells). The data set is classed as cell-based. As for the experimental part: In parallel to their antiproliferative capacity, the potential cytotoxic effect of the FGF-R antagonists is measured by means of quantifying the number of cells of which the membranes are permeabilized. The appearance of pores in the plasma membrane of the cells corresponds to a state of cell death which enables the Hoechst 33342 to penetrate more easily into the cell. This is reflected by a very strong increase in the amount of fluorescence detected in the nuclei. The percentage of cells in a state of cell death is calculated by the ratio between the number of very fluorescent nuclei to the total number of nuclei, multiplied by 100. The observations are carried out in the same way as the quantification of the nuclei for the cell proliferation.

In data set [3] the test system is TCC97-7 bladder cancer tumour cells carrying the Ser249Cys mutation of FGF receptor 3. The experiment in a line: Inhibition of serum-induced proliferation of TCC97-7 bladder cancer cells (count of Hoechst 33342-labelled nuclei after 3 days). The data set is classed as cell-based. Particulars: 72 h, TCC97-7 cells in presence of serum. As for the experimental part:
To do this, 2000 cells are seeded in the morning in 50 μl of complete medium (Ham-F/12, 1% FCS, 2 mM glutamine, non-essential amino acids, sodium pyruvate, 1% insulin/transferrin/selenium, hydrocortisone). In the evening, 50 μl of the various compounds are added at 0.02, 0.2, 2 or 20 μM after dilution in complete culture medium in order to obtain final concentrations of 0.01, 0.1, 1 and 10 μM. After 3 days, the cell proliferation is evaluated by measuring the number of nuclei at the bottom of each well corresponding to a number of cells. The nuclei are detected by means of labelling with Hoechst 33342 (Invitrogen, ref H3570). 100 μl of Hoechst 33342 diluted to 1/5000th in PBS are added to each well for 30 min at ambient temperature on non-fixed cells. The nuclei are detected by fluorescence at 350 nm at ×2 magnification with an Operetta (PerkinElmer) using the Acapella (PerkinElmer) imaging software and analysed using the Columbus (PerkinElmer) image analysis software. The percentage inhibition of the cell proliferation is calculated by considering the number of nuclei present in the wells in which the TCC97-7 cells are cultured in the absence of FGF-R antagonists to be 0% inhibition. 100% inhibition would correspond to a well no longer containing cells.

Counter-ions that a name gives are not always drawn.

A word on the melting point: it is the temperature, or range, at which the solid turns liquid. The inhibition is the drop in the measured response relative to a control, in per cent.

Consider `Cn1c(=O)n(Cc2ccc(F)cc2)c(=O)c2cc(C(=O)c3nc(-c4cccnc4)c4ccccn34)ccc21` (as salt: hydrochloride) [compound 112, 3-(4-Fluorobenzyl)-1-methyl-6-[(1-pyridin-3-ylimidazo[1,5-a]pyridin-3-yl)carbonyl]quinazoline-2,4(1H, 3H)-dione], for which the melting point was 267 °C.

In the case of `CCCn1c(=O)[nH]c2ccc(C(=O)c3nc(NS(C)(=O)=O)c4ccccn34)cc2c1=O` [compound 13, N-{3-[(2,4-dioxo-3-propyl-1,2,3,4-tetrahydroquinazolin-6-yl)carbonyl]imidazo[1,5-a]pyridin-1-yl}methanesulphonamide], the melting point was found to be 334 °C.

Take `Cl.Cn1c(=O)n(Cc2ccc(F)cc2)c(=O)c2cc(C(=O)c3nc(-c4cccc(C(=O)OCCN5CCOCC5)c4)c4ccccn34)ccc21`: the melting point was found to be 215 °C.

`CCCn1c(=O)[nH]c2ccc(C(=O)c3ncc4ccc(C(=O)O)cn34)cc2c1=O` [compound 8, 3-[(2,4-Dioxo-3-propyl-1,2,3,4-tetrahydroquinazolin-6-yl)carbonyl]imidazo[1,5-a]pyridine-6-carboxylic acid] returned a melting point of 384 °C.

As for `Cn1c(=O)n(Cc2ccc(F)cc2)c(=O)c2cc(C(=O)c3nc(-c4cccnc4)c4ccccn34)ccc21` [compound 112, 3-(4-Fluorobenzyl)-1-methyl-6-[(1-pyridin-3-ylimidazo[1,5-a]pyridin-3-yl)carbonyl]quinazoline-2,4(1H, 3H)-dione], in data set [1], the inhibition at 0.1 µM is -3%, the inhibition at 1 µM came to 51% and the inhibition at 10 µM came to 88%. For the same compound, in data set [2], the cytotoxicity at 3 days, 0.01 µM stood at 4%; the cytotoxicity at 3 days, 0.1 µM was 4%; the cytotoxicity at 3 days, 1 µM was 16%; the cytotoxicity at 3 days, 10 µM amounted to 11%. Besides, in data set [3], the inhibition at 0.01 µM was 8%, the inhibition at 0.1 µM came out at 18%, the inhibition at 1 µM is 61% and the inhibition at 10 µM was 84%.

With `CCCn1c(=O)[nH]c2ccc(C(=O)c3nc(-c4cccc(C(N)=O)c4)c4ccccn34)cc2c1=O` [compound 29, 3-{3[(2,4-Dioxo-3-propyl-1,2,3,4-tetrahydroquinazolin-6-yl)carbonyl]imidazo[1,5-a]pyridin-1-yl}benzamide], in data set [1], the inhibition at 0.1 µM is -4%, the inhibition at 1 µM stood at 8% and the inhibition at 10 µM was determined as 24%. Besides, in data set [2], the cytotoxicity at 3 days, 0.01 µM was determined as 3%; the cytotoxicity at 3 days, 0.1 µM worked out at 3%; the cytotoxicity at 3 days, 1 µM worked out at 8%; the cytotoxicity at 3 days, 10 µM came to 17%. In data set [3], the inhibition at 0.01 µM came out at 6%, the inhibition at 0.1 µM amounted to 9%, the inhibition at 1 µM was 45% and the inhibition at 10 µM worked out at 71%.

Compound `O=C(c1ccc2nc[nH]c(=O)c2c1)c1ncc2ccccn12` [compound 3, 6-(Imidazo[1,5-a]pyridin-3-ylcarbonyl)quinazolin-4(3H)-one] came in with a melting point of 289 °C.

Take `CN(C)CCNC(=O)c1cccc(-c2nc(C(=O)c3ccc4c(c3)c(=O)n(Cc3ccc(F)cc3)c(=O)n4C)n3ccccc23)c1.Cl` [compound 116, N-[2-(dimethylamino)ethyl]-3-(3-{[3-(4-fluorobenzyl)-1-methyl-2,4-dioxo-1,2,3,4-tetrahydroquinazolin-6-yl]carbonyl}imidazo[1,5-a]pyridin-1-yl)benzamide hydrochloride]: the melting point amounted to 247 °C. In data set [1], the inhibition at 0.1 µM was found to be 6%, the inhibition at 1 µM was determined as 9% and the inhibition at 10 µM came out at 95%. Moreover, in data set [2], the cytotoxicity at 3 days, 0.01 µM is 2%; the cytotoxicity at 3 days, 0.1 µM was 2%; the cytotoxicity at 3 days, 1 µM worked out at 2%; the cytotoxicity at 3 days, 10 µM was 3%. Moreover, in data set [3], the inhibition at 0.01 µM was -1%, the inhibition at 0.1 µM was -3%, the inhibition at 1 µM was 22% and the inhibition at 10 µM was found to be 83%.

These data come from patent publication US9732078B2, “Therapeutic use of imidazopyridine derivatives” (SANOFI, priority 2012, dated 2017).
